Data reported in ChEMBL document CHEMBL1201862, “PubChem BioAssay data set” (2004).
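These data come from cells grown in 96-well plates and exposed to compound for 48 hours at five concentrations. At the GI50, growth is halved.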 Active and inactive are the calls of the source. No stated cut-off is given here; in the data, active = GI50 up to about 1.1 µM and inactive = higher.

Tests used:
Test in all cases: NCI-60 cell line screen, 48 h
OVCAR-5 = system: OVCAR-5
MCF7 = system: MCF7
SF-268 = system: SF-268
PC-3 = system: PC-3
HOP-62 = system: HOP-62
EKVX = system: EKVX
NCI-H522 = system: NCI-H522
A498 = system: A498
COLO 205 = system: COLO 205
MDA-N = system: MDA-N
SR = system: SR
K562 = system: K562
SK-OV-3 = system: SK-OV-3
HL-60 = system: HL-60
OVCAR-4 = system: OVCAR-4
SNB-75 = system: SNB-75
HCT-15 = system: HCT-15
NCI/ADR-RES = system: NCI/ADR-RES
IGROV-1 = system: IGROV-1
NCI-H460 = system: NCI-H460
RXF 393 = system: RXF 393
MDA-MB-231 = system: MDA-MB-231
UACC-257 = system: UACC-257
MOLT-4 = system: MOLT-4
SNB-19 = system: SNB-19
UO-31 = system: UO-31
SN12C = system: SN12C
T47D = system: T47D
HT-29 = system: HT-29
UACC-62 = system: UACC-62
Malme-3M = system: Malme-3M
SF-295 = system: SF-295
U-251 = system: U-251
LOX IMVI = system: LOX IMVI
SK-MEL-28 = system: SK-MEL-28
A549 = system: A549
NCI-H23 = system: NCI-H23
TK-10 = system: TK-10
DU-145 = system: DU-145
ACHN = system: ACHN
BT-549 = system: BT-549
CAKI-1 = system: CAKI-1
NCI-H226 = system: NCI-H226
SW-620 = system: SW-620
MDA-MB-435 = system: MDA-MB-435
OVCAR-3 = system: OVCAR-3
M14 = system: M14
HOP-92 = system: HOP-92
Hs-578T = system: Hs-578T
HCT-116 = system: HCT-116
KM12 = system: KM12
786-0 = system: 786-0
OVCAR-8 = system: OVCAR-8
HCC 2998 = system: HCC 2998
SK-MEL-5 = system: SK-MEL-5
CCRF-CEM = system: CCRF-CEM
SF-539 = system: SF-539
RPMI-8226 = system: RPMI-8226

O=C1c2cccc3cccc(c23)C2NCCCN12 (configuration not stated)
GI50 (OVCAR-5): > 100 µM (inactive)
GI50 (MCF7): 95.3 µM (inactive)
GI50 (SF-268): > 100 µM (inactive)
GI50 (PC-3): > 100 µM (inactive)
GI50 (HOP-62): > 100 µM (inactive)
GI50 (EKVX): 35.7 µM (inactive)
GI50 (NCI-H522): 28.8 µM (inactive)
GI50 (A498): > 100 µM (inactive)
GI50 (COLO 205): > 100 µM (inactive)
GI50 (MDA-N): > 100 µM (inactive)
GI50 (SR): 71 µM (inactive)
GI50 (K562): 70.3 µM (inactive)
GI50 (SK-OV-3): > 100 µM (inactive)
GI50 (HL-60): > 100 µM (inactive)
GI50 (OVCAR-4): > 100 µM (inactive)
GI50 (SNB-75): < 0.01 µM (active)
GI50 (HCT-15): > 100 µM
GI50 (NCI/ADR-RES): 99.1 µM (inactive)
GI50 (IGROV-1): > 100 µM (inactive)
GI50 (NCI-H460): > 100 µM (inactive)
GI50 (RXF 393): 42.4 µM (inactive)
GI50 (MDA-MB-231): > 100 µM (inactive)
GI50 (UACC-257): > 100 µM (inactive)
GI50 (MOLT-4): 47.3 µM (inactive)
GI50 (SNB-19): > 100 µM (inactive)
GI50 (UO-31): 88.5 µM (inactive)
GI50 (SN12C): > 100 µM (inactive)
GI50 (T47D): > 100 µM (inactive)
GI50 (HT-29): > 100 µM (inactive)
GI50 (UACC-62): > 100 µM (inactive)
GI50 (Malme-3M): > 100 µM (inactive)
GI50 (SF-295): > 100 µM (inactive)
GI50 (U-251): > 100 µM (inactive)
GI50 (LOX IMVI): > 100 µM (inactive)
GI50 (SK-MEL-28): > 100 µM (inactive)
GI50 (A549): > 100 µM (inactive)
GI50 (NCI-H23): > 100 µM (inactive)
GI50 (TK-10): > 100 µM (inactive)
GI50 (DU-145): > 100 µM (inactive)
GI50 (ACHN): 68.7 µM (inactive)
GI50 (BT-549): > 100 µM (inactive)
GI50 (CAKI-1): 89.3 µM (inactive)
GI50 (NCI-H226): 52.8 µM (inactive)
GI50 (SW-620): 94 µM (inactive)
GI50 (MDA-MB-435): > 100 µM (inactive)
GI50 (OVCAR-3): > 100 µM (inactive)
GI50 (M14): > 100 µM (inactive)
GI50 (HOP-92): > 100 µM (inactive)
GI50 (Hs-578T): > 100 µM (inactive)
GI50 (HCT-116): > 100 µM (inactive)
GI50 (KM12): > 100 µM (inactive)
GI50 (786-0): > 100 µM (inactive)
GI50 (OVCAR-8): > 100 µM (inactive)
GI50 (HCC 2998): 62.5 µM (inactive)
GI50 (SK-MEL-5): 78.2 µM (inactive)
GI50 (CCRF-CEM): 37.7 µM (inactive)

O=C(CC(C(=O)c1cccs1)c1ccsc1)c1ccsc1 (configuration not stated)
GI50 (OVCAR-5): > 100 µM (inactive)
GI50 (MCF7): 32.5 µM (inactive)
GI50 (SF-268): 51.6 µM (inactive)
GI50 (SF-539): 27.5 µM (inactive)
GI50 (PC-3): 29 µM (inactive)
GI50 (HOP-62): 56.9 µM (inactive)
GI50 (EKVX): 38 µM (inactive)
GI50 (NCI-H522): 20.4 µM (inactive)
GI50 (A498): 11.4 µM (inactive)
GI50 (COLO 205): 18.2 µM (inactive)
GI50 (MDA-N): > 10 µM (inactive)
GI50 (SR): 32.6 µM (inactive)
GI50 (K562): 27.4 µM (inactive)
GI50 (SK-OV-3): 32.1 µM (inactive)
GI50 (HL-60): 40.1 µM (inactive)
GI50 (OVCAR-4): 27.4 µM (inactive)
GI50 (SNB-75): 25.6 µM (inactive)
GI50 (HCT-15): 42.1 µM
GI50 (NCI/ADR-RES): 24.8 µM (inactive)
GI50 (IGROV-1): 54.1 µM (inactive)
GI50 (NCI-H460): 23 µM (inactive)
GI50 (RXF 393): 25.6 µM (inactive)
GI50 (MDA-MB-231): 30 µM (inactive)
GI50 (UACC-257): 70.5 µM (inactive)
GI50 (RPMI-8226): 27.1 µM (inactive)
GI50 (MOLT-4): 21 µM (inactive)
GI50 (SNB-19): 50.6 µM (inactive)
GI50 (UO-31): 31.4 µM (inactive)
GI50 (SN12C): 52 µM (inactive)
GI50 (T47D): 30.6 µM (inactive)
GI50 (HT-29): 36.6 µM (inactive)
GI50 (UACC-62): 14 µM (inactive)
GI50 (Malme-3M): 78.5 µM (inactive)
GI50 (SF-295): 24.6 µM (inactive)
GI50 (U-251): 46.3 µM (inactive)
GI50 (LOX IMVI): 22.8 µM (inactive)
GI50 (SK-MEL-28): 50.5 µM (inactive)
GI50 (A549): 45.8 µM (inactive)
GI50 (NCI-H23): 53 µM (inactive)
GI50 (TK-10): > 100 µM (inactive)
GI50 (DU-145): 44.8 µM (inactive)
GI50 (ACHN): 58.2 µM (inactive)
GI50 (BT-549): 28.3 µM (inactive)
GI50 (SW-620): 29.7 µM (inactive)
GI50 (MDA-MB-435): 20.3 µM (inactive)
GI50 (OVCAR-3): 40.2 µM (inactive)
GI50 (M14): 16.9 µM (inactive)
GI50 (HOP-92): 29.2 µM (inactive)
GI50 (Hs-578T): 20.3 µM (inactive)
GI50 (HCT-116): 27.4 µM (inactive)
GI50 (KM12): 42.9 µM (inactive)
GI50 (786-0): 46.2 µM (inactive)
GI50 (OVCAR-8): 39.4 µM (inactive)
GI50 (HCC 2998): 34.1 µM (inactive)
GI50 (SK-MEL-5): 16.1 µM (inactive)
GI50 (CCRF-CEM): 29 µM (inactive)
